Results: publication PMC5418711, “Safety and efficacy of the choline analogue SAR97276 for malaria treatment: results of two phase 2, open-label, multicenter trials in African patients” (Malaria Journal, 2017)
Several values for one entry are separate records, joined by “and”; a condition that tells them apart may be missing. Equal entries are not always repeated. Where two headings read alike, the source gives them in different places.

Tests used:
[1] = tested on: malaria mouse model; parameters: method as in PMID 11847346, PMID 15492221, PMID 12878525; settings: cited from earlier work; for Curative 4-day dose: mouse model
[2] = Population pharmacokinetics in plasma, Study 1 and Study 2; format: in vivo, human; settings: for AUC(0-t) / Cmax / Vd / clearance: human, plasma; for AUC(0-t) / Cmax: mean and SD; for AUC(0-t): read-out: AUC or AUC0-24,ss; for Cmax: read-out: Cmax or Cmax,ss; for Vd: read-out: Median central volume of distribution V2; for clearance: read-out: Median clearance (converted)
Experimental: Rescue therapy was initiated in case of clinical aggravation of recrudescent parasites in both studies, the exact description for each study can be seen in the supplement (Additional file 3). Pharmacokinetic analysis: Plasma samples were assayed using a validated liquid chromatography-mass spectrometry method with a limit of quantification of 1 ng/ml for SAR97276. The pharmacokinetic analysis was performed using a population pharmacokinetic modeling approach.
The pharmacokinetics of SAR97276 were best described by a three-compartment model, with a first order absorption (ka), with interindividual variability on clearances and central volume of distribution.

[3] = Study 2: safety assessment (TEAEs, ECG, respiratory parameters); format: in vivo, human; settings: for QTc interval - change from baseline Borderline: Incr. from B 30-60 ms / QTc interval - change from baseline Prolonged: Incr. from B > 60 ms / QTc interval Borderline: 431-450 ms (Boys); 451-470 ms (Girls) / QTc interval Prolonged: > 450 ms (Boys); > 470 ms (Girls) / QTc interval ≥ 500 ms: TEAE period
Experimental: Study duration and follow-up In both studies, study duration was 28 days for each patient including a screening period of up to 12 h before inclusion into the study. Participants were hospitalized for at least 3 days (72 h) after the start of treatment. Follow-up visits were done on day 6, 8, 14 ± 2, 21 ± 2, 28 ± 2 (Study 1); and day 7, 14 ± 2, 21 ± 2, 28 ± 2 (Study 2). Patient examination Fever measurements and thick blood smears were done every 6 h until 72 h and at each follow-up visit. Parasitemia was determined microscopically by Giemsa stained thick blood smear by two trained microscopists blinded to each other. Safety assessment Safety analysis was based on AEs including vision assessment recorded from baseline until day 28 (in binocular conditions, for near and distant visual acuity, using standard optotypes appropriate for patient’s age and reading ability. Tests with standard corrective glasses (+3 and −3 diopters) were performed in case of visual adverse events, to assess whether vision improved or worsened with corrective glasses). Laboratory tests including hematology, biochemistry and urine analysis were done at baseline, day 2, 4, 28 (Study 1), or baseline, day 2, 4, 14, 28 (Study 2); vital signs were recorded at baseline, every 6 h until 72 h and on each follow up visit. An electrocardiogram (ECG) was done at baseline, day 4, 28 (Study 1), or baseline, 48 h, 72 h, day 28 (Study 2). For Study 2 respiratory parameters (respiratory rate, peak flow, efficiency of cough) were also checked at baseline and 30 min after first dose on day 1, 2 and 3.
Treatment emergent adverse events (TEAEs) were defined as AEs that developed or worsened during the treatment period until day 6 following the end of study treatment.

[4] = im, 0.18 mg/kg, Group 1D: 3 days IM 0.18 mg/kg, children, n=14
[5] = im, 0.18 mg/kg, Study 1 Adults IM (1A + 1B) 0.18 mg/kg, n=64
[6] = im, 0.5 mg/kg, Group 2A: 3 days IM once daily 0.5 mg/kg, teenagers, n=8
[7] = intramuscular, 0.18 mg/kg, children
[8] = iv, 0.14 mg/kg, Group 1C: 1 day IV 0.14 mg/kg, adults, n=30
[9] = Group 2A: 3 days IM once daily 0.5 mg/kg, teenagers, N=8
[10] = Group 2A: 3 days IM once daily 0.5 mg/kg, teenagers, N=8, baseline 205
[11] = Group 2A: 3 days IM once daily 0.5 mg/kg, teenagers
[12] = Group 2B: 3 days IM twice daily 0.25 mg/kg, teenagers, N=8
[13] = Group 2B: 3 days IM twice daily 0.25 mg/kg, teenagers, N=8, baseline 185
[14] = Group 2B: 3 days IM twice daily 0.25 mg/kg, teenagers

Cc1c(CCO)sc[n+]1CCCCCCCCCCCC[n+]1csc(CCO)c1C [SAR97276A]
Efficacy in malaria mouse model [1]: highly efficacious
Curative 4-day dose ([1]; orally): 20 to 45 mg/kg/day
Curative 4-day dose ([1]; parenterally): 1 mg/kg/day
AUC(0-t) [2, 4]: 479 ± 111 ng·h/mL
Cmax [2, 4]: 332 ± 91 ng/mL
AUC(0-t) [2, 5]: 674 ± 109 ng·h/mL
Cmax [2, 5]: 355 ± 51 ng/mL
AUC(0-t) ([2]; im, 0.25 mg/kg, Group 2B: 3 days IM twice daily 0.25 mg/kg, teenagers, n=8, AUC0-12 at steady state multiplied by 2): 1400 ± 270 ng·h/mL
Cmax ([2]; im, 0.25 mg/kg, Group 2B: 3 days IM twice daily 0.25 mg/kg, teenagers, n=8): 477 ± 91 ng/mL
AUC(0-t) [2, 6]: 1470 ± 375 ng·h/mL
Cmax [2, 6]: 862 ± 45 ng/mL
Vd [2, 7]: 0.217 L/kg
clearance [2, 7]: 6.55 mL/min/kg
AUC(0-t) [2, 8]: 480 ± 92 ng·h/mL
Cmax [2, 8]: 390 ± 55 ng/mL
Vd ([2]; adults): 0.27 L/kg
clearance ([2]; adults): 4.58 mL/min/kg
Inter-individual variability based on Cmax and AUC ([2]; whatever the populations or the route of administration): < 25%
Patients with TEAE leading to treatment discontinuation [3, 9]: 2 (25%)
Patients with any TEAE [3, 9]: 8 (100%)
Patients with any serious AE [3, 9]: 4 (50%)
TEAE: Decreased appetite [3, 9]: 0
TEAE: Gastrointestinal disorders [3, 9]: 4 (50%)
TEAE: Headache [3, 9]: 0
TEAE: Hepatitis B [3, 9]: 1 (13%)
TEAE: Jaundice [3, 9]: 1 (13%)
TEAE: Lacrimation increased [3, 9]: 1 (13%)
TEAE: Malaria [3, 9]: 7 (88%)
TEAE: Neutropenia [3, 9]: 0
TEAE: Pyrexia [3, 9]: 0
TEAE: Vertigo [3, 9]: 1 (12.5%)
TEAE: Vision blurred [3, 9]: 1 (13%)
Peakflow, change from baseline on D1 0.30 h [3, 10]: -15.0 median L/min
Peakflow, change from baseline on D2 24.30 h [3, 10]: 4.0 median L/min
Peakflow, change from baseline on D23 48.30 h [3, 10]: 45.0 median L/min
QTc interval - change from baseline Borderline: Incr. from B 30-60 ms [3, 11]: 2/8
QTc interval - change from baseline Prolonged: Incr. from B > 60 ms [3, 11]: 0/8
QTc interval Borderline: 431-450 ms (Boys); 451-470 ms (Girls) [3, 11]: 3/8
QTc interval Prolonged: > 450 ms (Boys); > 470 ms (Girls) [3, 11]: 0/8
QTc interval ≥ 500 ms [3, 11]: 0/8
Patients with TEAE leading to treatment discontinuation [3, 12]: 2 (25%)
Patients with any TEAE [3, 12]: 5 (63%)
Patients with any serious AE [3, 12]: 2 (25%)
TEAE: Decreased appetite [3, 12]: 1 (13%)
TEAE: Gastrointestinal disorders [3, 12]: 1 (13%)
TEAE: Headache [3, 12]: 0
TEAE: Jaundice [3, 12]: 0
TEAE: Lacrimation increased [3, 12]: 0
TEAE: Malaria [3, 12]: 4 (50%)
TEAE: Neutropenia [3, 12]: 2 (25%)
TEAE: Pyrexia [3, 12]: 0
TEAE: Vertigo [3, 12]: 0
TEAE: Vision blurred [3, 12]: 0
Peakflow, change from baseline on D1 0.30 h [3, 13]: 2.5 median L/min
Peakflow, change from baseline on D2 24.30 h [3, 13]: 5.0 median L/min
Peakflow, change from baseline on D23 48.30 h [3, 13]: -10.0 median L/min
QTc interval - change from baseline Borderline: Incr. from B 30-60 ms [3, 14]: 0/8
QTc interval - change from baseline Prolonged: Incr. from B > 60 ms [3, 14]: 0/8
QTc interval Borderline: 431-450 ms (Boys); 451-470 ms (Girls) [3, 14]: 2/8
QTc interval Prolonged: > 450 ms (Boys); > 470 ms (Girls) [3, 14]: 2/8
QTc interval ≥ 500 ms [3, 14]: 0/8
Overall safety profile ([3]; Study 2): good
Patients with a TEAE who discontinued study treatment and received rescue treatment, total ([3]; Study 2): Four
Respiratory parameters: untoward effect ([3]; Study 2): no indication for an untoward effect
SAEs: relation to study treatment ([3]; Study 2): not related
Patients who had a SAE, total ([3]; Study 2, all in the SAR97276A treatment groups): 6
Neutrophil count in the two patients with neutropenia who discontinued treatment ([3]; Study 2, day 2, returned to normal values at 72 h after treatment start): 0.99 giga/L and 0.91 giga/L
Patients with a SAE with persistence of uncomplicated malaria ([3]; Study 2, of six SAE patients): five
